In the OPERA property sets (Mansouri et al. 2018):

Row | Compound | logP
1 | CN1C(=O)CN=C(c2c(Cl)cccc2Cl)c2cc(Cl)ccc21 | 3.04
2 | O=[N+]([O-])c1nccn1CC(O)CCl (stereo unspecified) | 0.15
3 | CC(C)(C)c1cccc(OC2OC(CO)C(O)C(O)C2O)c1 (stereo unspecified) | 1.01
4 | Oc1ccc(C(c2ccc(O)cc2)c2nccs2)cc1 | 2.96
5 | N#Cc1ccc(NC(=O)N=C(N)N)cc1Cl | 1.9
6 | CCCOn1c(=O)[nH]c(C)c(SC#N)c1=O | -0.22
7 | CC1=Nc2ccc(C(F)(F)F)cc2S(=O)(=O)N1 | 1.51
8 | CCOC(=O)C(=Cc1ccc(OC)cc1)C(=O)OCC | 3.28
9 | CCCCCCC1OC(=O)c2ccccc21 (stereo unspecified) | 3.55
10 | CCCCCOn1c(=O)[nH]c(C)c(Br)c1=O | 1.69
11 | COCN1C(=O)CN=C(c2ccccc2)c2cc(Cl)ccc21 | 2.86
12 | COc1cc(Cc2cnc(N)nc2N)cc(OC)c1O | 0.37
13 | COP(=O)(OC)Oc1ccc([N+](=O)[O-])c(Cl)c1 | 1.83
14 | CC12CCC(=O)C=C1C1(CC1)CC1C2CCC2(C)C1CCC21CCC(=O)O1 (stereo unspecified) | 3.15
15 | OCC(CO)(CO)CBr | -0.7
16 | CC(=O)Nc1ccccc1C(C)=O | 1.5
17 | CSc1ccc(NS(=O)(=O)C(F)(F)F)cc1 | 3.74
18 | CO[C@@]12[C@@H]3N[C@@H]3CN1C1=C(C(=O)C(Nc3nc(C)c(C)s3)=C(C)C1=O)[C@@H]2COC(N)=O | 1.29
19 | OCC1OC(Oc2ccc3ccccc3c2)C(O)C(O)C1O (stereo unspecified) | 0.76
20 | CNC(=O)Oc1cc(C)c(Cl)cc1C | 2.95
21 | CCOC(=O)CCCCCN1C(=O)C=CC1=O | 1.5
22 | O=C(NN=Cc1ccccc1)c1ccccc1 | 2.56
23 | ClC1C(Cl)C(Cl)C(I)C(Cl)C1Cl (stereo unspecified) | 4.05
24 | CCCCCCCCCCCCCCCC[n+]1ccc(C)cc1C.[I-] | 3.9
25 | Cc1cccc(OC2OC(CO)C(O)C(O)C2O)c1 (stereo unspecified) | -0.2
26 | Nc1cc(OCC(=O)O)ccc1Cl | 1.16

Row | Compound | logP
27 | CCOC(=O)C(=Cc1cccc(OC)c1OC)C(C)=O | 2.21
28 | CN(Cc1ccccc1)N=Nc1ccc(C#N)cc1 | 3.82
29 | CN(C)c1ccc(Cc2cnc(N)nc2N)cc1 | 1.82
30 | COc1cc(CC(=O)O)ccc1OCc1ccccc1 | 2.59
31 | CCOC(=O)C(=Cc1ccccc1OC)C(=O)OCC | 3.29
32 | CCNC1CC2CC1c1ccccc12 (stereo unspecified) | 2.72
33 | CCCSC1OC(CO)C(O)C(O)C1O (stereo unspecified) | -1.18
34 | CC(C)(C)NC(=O)NN | -0.81
35 | [O-][n+]1ccccc1SCc1ccccc1 | 1.24
36 | COc1cccc(N2C(=O)CCC2=O)c1 | 0.18
37 | Cc1ccccc1OC1OC(CO)C(O)C(O)C1O (stereo unspecified) | -0.16
38 | Cc1cc([N+](=O)[O-])c2ccccc2[n+]1[O-] | 1.25
39 | Cc1cc(C)cc(NC(=O)N(C)C)c1 | 1.9
40 | CCC(C)C1=Nc2ccc(Cl)cc2S(=O)(=O)N1 (stereo unspecified) | 2.47
41 | CC(=O)C(C#N)=NNc1ccc([N+](=O)[O-])cc1[N+](=O)[O-] | 3.4
42 | CC(=O)N(c1ccccc1)S(C)(=O)=O | 0.29
43 | N#Cc1cccc(OC(=O)CNC(=O)c2ccccc2)c1 | 2.11
44 | CC(C)CNC(=O)NN | -0.84
45 | CNP(=O)(OC)Oc1ccc(SC)cc1 (stereo unspecified) | 1.81
46 | Cc1cc(C)cc(OC(=O)CNC(=O)c2ccccc2)c1 | 3.4
47 | CN(CCO)N=Nc1ccccc1 | 1.71
48 | O=C1C(O)=C(CC=C(Cl)Cl)C(=O)c2ccccc21 | 3.1
49 | C=CCS(=O)(=O)c1cc(OC)c(OC)c(OC)c1 | 1.34
50 | COCCOc1c(OC)cc(Cc2cnc(N)nc2N)cc1OC | 0.56
51 | NC(=O)c1[nH]cnc1/N=N/N(CCO)CCO | -1.09
52 | Oc1nc2ccccc2nc1O | 0.2

Row | Compound | logP
53 | CCOP(=S)(OCC)Oc1ccccc1 | 3.46
54 | CSc1nnc(CC(C)C)c(=O)n1N | 1.39
55 | O=C1C=CC(=NO)c2ccccc21 | 2.27
56 | Oc1ccnc2c(O)cccc12 | 0.62
57 | CCC(=O)N(C)SN(C)C(=O)Oc1cccc2c1OC(C)(C)C2 | 3.2
58 | CCCCCC[n+]1cc(C)cc(C)c1.[I-] | -1.19
59 | COc1cc(Cc2cnc(N)nc2N)cc(OC)c1-n1cccc1 | 1.78
60 | COc1cc(Cc2cnc(N)nc2N)cc(OC)c1C | 2.14
61 | COC(=O)COc1c(OC)cc(Cc2cnc(N)nc2N)cc1OC | 0.55
62 | O=[N+]([O-])C=Cc1ccccc1[N+](=O)[O-] | 1.8
63 | CSCN1C(=O)CN=C(c2ccccc2)c2cc(N)ccc21 | 1.92
64 | CC(C)C1OC(=O)c2ccccc21 (stereo unspecified) | 2.1
65 | Nc1ncco1 | -0.18
66 | CCOc1cc(Cc2cnc(N)nc2N)cc(OC)c1C(C)(C)O | 2.11
67 | C[N+](C)(C)Cc1cccnc1.[Br-] | -3.5
68 | NNC(=O)c1ccc2ncccc2c1 | 0.35
69 | O=C1CCC(=O)N1c1ccc(Cl)cc1 | 0.96
70 | COC1(C(F)(F)F)C(Cl)C(Cl)C(Cl)C(Cl)C1Cl (stereo unspecified) | 4.06
71 | Clc1ccc(Cl)c(N=C2NCCN2)c1 | 2.04
72 | CCCCC(=O)NN | -0.11
73 | Cc1ccc(OC(=O)CNC(=O)c2ccccc2)cc1 | 2.83
74 | O=C1OC(C2CCCCC2)c2ccccc21 (stereo unspecified) | 3.34
75 | CCOC(=O)c1c(OCC)cc(Cc2cnc(N)nc2N)cc1OCC | 2.28
76 | O=C1CCC(=O)N1c1ccccc1Br | 0.65
77 | COc1ccc(NS(=O)(=O)C(F)(F)F)cc1 | 3
78 | FC(F)(F)CCc1ccccc1 | 3.31

Row | Compound | logP
79 | CCN1C(=O)CN=C(c2ccccc2)c2cc(N)ccc21 | 1.81
80 | CS(=O)(=O)N(c1ccccc1)S(C)(=O)=O | 0.62
81 | O=C1CN=C(c2c(F)cccc2F)c2cc(Cl)ccc2N1 | 2.68
82 | Cc1csc(C=Cc2ccc([N+](=O)[O-])o2)n1 | 1.53
83 | CCCC(C)n1nnc2ccccc21 (stereo unspecified) | 2.95
84 | Clc1ccc(-c2ccc(Cl)c(Cl)c2Cl)c(Cl)c1 | 6.61
85 | O=NN(CCCl)C(=O)NC1CSCSC1 | 2.08
86 | COc1ccc(CC(C)N)c(OC)c1OC (stereo unspecified) | 1.51
87 | OCC1C(Cl)C(Cl)C(Cl)C(Cl)C1Cl (stereo unspecified) | 2.94
88 | CCSc1nnc(C(C)C)c(=O)n1N | 1.52
89 | Cc1ccccc1-c1nc(N)nc(N)n1 | 1.26
90 | CON(C)C(=O)Nc1ccc(OCc2ccccc2)cc1 | 3.11
91 | CN(C=O)c1ccc(S(=O)(=O)N(C)C)cc1 | 0.4
92 | O=C(CN1CCCCC1)Nc1ccccc1Cl | 2.76
93 | CCOP(=S)(OCC)SCS(=O)CC (stereo unspecified) | 1.78
94 | CC(=O)C(C#N)=NNc1ccc(SC(F)(F)F)cc1 | 5.04
95 | O=C(NC(CO)C(O)c1ccccc1)C(Cl)Cl (stereo unspecified) | 0.94
96 | FC(F)(F)c1nc2c(Cl)cc(Cl)cc2[nH]1 | 3.49
97 | CCOC(=O)C(C#N)=NNc1cc(Cl)c(Cl)c(Cl)c1 | 5.03
98 | Clc1ccccc1-c1ccc(Cl)c(Cl)c1Cl | 6.11
99 | CNC(=O)ON=C(C)C(C)(C)[N+](=O)[O-] | 0.66
100 | COc1ccc(Cc2cnc(N)nc2N)cc1Br | 1.88
101 | CNP(=O)(OC)Oc1ccc(Cl)cc1 (stereo unspecified) | 1.85
102 | CCOC(=O)C(=Cc1ccccc1)C(=O)OCC | 3.13
103 | CC(=O)Nc1c(C)c(C)c(O)c(C)c1C | 0.95
104 | CCOC(=O)c1cnc2cccc(C)n2c1=O | 0.96

Row | Compound | logP
105 | CC1=Nc2c(C)cccc2S(=O)(=O)N1 | 0.52
106 | COc1ccccc1NC(=O)C(Cl)Cl | 2.41
107 | O=C(NC1CC1)c1cc(N2CC2)c([N+](=O)[O-])cc1[N+](=O)[O-] | 0.74
108 | O=C1CN=C(c2ccccc2F)c2cc(Cl)ccc2N1 | 2.7
109 | CCC(C)NC(=O)C=Cc1ccc(Cl)cc1 (stereo unspecified) | 3.37
110 | Clc1ncnc2sccc12 | 1.79
111 | COc1ccccc1C(=O)NCCCN(C)C | 1.27
112 | O=C(O)COc1cc(F)cc(Cl)c1 | 2.2
113 | O=c1nc(-c2ccccc2)c2cc(Br)ccc2[nH]1 | 2.71
114 | S=C=NCc1cccc2ccccc12 | 4.42
115 | COC12C(COC(N)=O)C3=C(C(=O)C(C)=C(N)C3=O)N1CC1C2N1COC(=O)c1ccccc1 (stereo unspecified) | 1.26
116 | COCCOc1ccccc1OCCOC | 1.12
117 | CC(O)Cn1ccnc1[N+](=O)[O-] (stereo unspecified) | -0.16
118 | CCc1c(OC)cc(Cc2cnc(N)nc2N)cc1OC | 2.72
119 | CNC(=O)C1CCCN1C(C)=O (stereo unspecified) | -1.19
120 | COc1cc(-n2nc(C)cc2OC)ncn1 | 1.53
121 | CC1CCCN(N=O)C1 (stereo unspecified) | 0.99
122 | OCC1OC(Sc2ccccc2)C(O)C(O)C1O (stereo unspecified) | -0.56
123 | O=S1(=O)NC(C2CC2)=Nc2cc(Cl)ccc21 | 1.98
124 | O=C1CN=C(c2ccccc2Br)c2cc(Cl)ccc2N1 | 3.17
125 | CCN(CC)c1nc(N(C)C)nc(N(C)C)n1 | 3.45
126 | NS(=O)(=O)NS(=O)(=O)Nc1ccccc1 | 0.02
127 | O=C(O)Cc1ccc(OCc2ccccc2)c(Cl)c1 | 3.43
128 | CCOC(=O)C(=Cc1cccc(OC)c1)C(=O)OCC | 3.18
129 | CN(C)N=Nc1cccc(C(=O)O)c1 | 2.03
130 | CNC(=O)Oc1cccc(C(=O)OC)c1 | 1.42

Row | Compound | logP
131 | CCOC(=O)CN(C(=O)CCl)c1ccccc1 | 1.6
132 | COC(=O)C1(n2ccnc2[N+](=O)[O-])CC(OC(C)=O)C(NC(C)=O)C(C(OC(C)=O)C(COC(C)=O)OC(C)=O)O1 (stereo unspecified) | 0.41
133 | CC1=C(C(N)=O)SCCO1 | -0.22
134 | CCOc1cc(Cc2cnc(N)nc2N)cc(OCC)c1N | 1.69
135 | COC(=O)C(C#N)=NNc1cc(Cl)cc(Cl)c1 | 4.5
136 | NNC(=O)NN=Cc1ccccc1 | 0.81
137 | Clc1ccc(Cl)c(-c2cc(Cl)cc(Cl)c2Cl)c1 | 6.79
138 | Cc1cccc2nccc(=O)n12 | 0.74
139 | CN1C(=O)SC(=CC=Cc2ccc([N+](=O)[O-])o2)C1=O | 1.4
140 | O=C(NCc1ccccc1O)c1ccccc1 | 2.55
141 | Nc1cnc2ccccc2n1 | 1.5
142 | CCCC1(CC)C(=O)NC(=O)N(C)C1=O (stereo unspecified) | 1.65
143 | O=C(O)c1ccccc1Nc1cccc([N+](=O)[O-])c1 | 4.57
144 | CCN(CC)CCCNC(=O)c1ccccc1 | 1.56
145 | O=C(O)CCN1C(=O)C=CC1=O | 0.04
146 | O=NN(CCCl)C(=O)NC1CCS(=O)(=O)CC1 | 0.19
147 | CSc1nc2ccc(Cl)cc2[nH]1 | 3.22
148 | Cc1cc(C)nc(-n2c(C)cc(=O)n2C)n1 | 0.51
149 | CCN(CC)CCNC(=O)c1cc(S(C)(=O)=O)ccc1OC | 0.9
150 | Clc1cc(Cl)cc(-c2c(Cl)c(Cl)cc(Cl)c2Cl)c1 | 7.37
151 | Cc1cc(-n2c(=O)cc(C)n2C)nc(C)n1 | 0.24
